Measured values: patent US9446127B2, “Compositions including androgen receptor degradation (ARD) enhancers and methods of prophylactic or therapeutic treatment of skin disorders and hair loss” (AndroScience Corporation, priority 2007, dated 2016)

Assays:
androgen receptor (AR) [1] = molecular target: T1, androgen receptor (AR) (Homo sapiens, UniProt P10275, T878A); test: Western blot analysis of AR expression in LNCaP cells; assay type: cell-based
T1 construct: endogenous in cells; host or cells: LNCaP
T1 sequence (P10275 1-920 T878A): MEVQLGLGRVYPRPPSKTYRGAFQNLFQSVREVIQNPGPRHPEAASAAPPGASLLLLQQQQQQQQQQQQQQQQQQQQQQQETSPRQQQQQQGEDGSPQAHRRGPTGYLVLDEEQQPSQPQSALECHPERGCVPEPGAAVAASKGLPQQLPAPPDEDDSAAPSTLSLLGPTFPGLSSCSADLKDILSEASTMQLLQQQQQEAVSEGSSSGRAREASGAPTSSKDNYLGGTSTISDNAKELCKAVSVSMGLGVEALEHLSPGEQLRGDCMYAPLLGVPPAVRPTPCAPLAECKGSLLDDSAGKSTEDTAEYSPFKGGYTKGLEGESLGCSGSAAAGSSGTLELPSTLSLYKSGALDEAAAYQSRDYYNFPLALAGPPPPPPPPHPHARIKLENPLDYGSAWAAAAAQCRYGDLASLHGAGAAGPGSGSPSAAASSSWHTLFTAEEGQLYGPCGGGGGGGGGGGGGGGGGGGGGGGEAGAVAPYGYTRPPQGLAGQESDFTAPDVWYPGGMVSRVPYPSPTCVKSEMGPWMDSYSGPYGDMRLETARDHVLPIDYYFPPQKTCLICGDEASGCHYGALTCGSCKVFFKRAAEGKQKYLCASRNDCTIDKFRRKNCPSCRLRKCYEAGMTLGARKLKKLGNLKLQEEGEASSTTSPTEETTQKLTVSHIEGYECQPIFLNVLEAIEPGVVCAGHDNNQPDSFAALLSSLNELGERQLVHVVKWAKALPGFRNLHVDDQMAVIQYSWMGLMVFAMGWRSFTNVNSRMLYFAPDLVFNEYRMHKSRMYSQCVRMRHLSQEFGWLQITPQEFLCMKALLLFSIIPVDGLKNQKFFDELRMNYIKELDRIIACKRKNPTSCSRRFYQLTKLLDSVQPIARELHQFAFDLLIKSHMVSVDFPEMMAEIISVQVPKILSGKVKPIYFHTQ
Excerpt: Briefly, cells (for example, LNCap cells) are harvested either in 2× sodium dodecyl sulfate (SDS) loading buffer or in radioimmunoprecipitation assay (RIPA) lysis buffer (see “Antibodies: A Laboratory Manual”, E. Harlow and D. Lane, Cold Spring Harbor Laboratory, 1988) containing 10 micrograms/milliliter of benzamidine, 10 micrograms/milliliter of trypsin inhibitor, and 1 millimolar of phenylmethylsulfonyl fluoride (PMSF). Total protein (40 micrograms/sample, or as desired) from cell lysate is separated on a SDS-PAGE gel. After separation, proteins are transferred from the gel to a nitrocellulose membrane following standard Western blot procedures. The membrane is blocked with a suitable blocking agent (such as 10% non-fat milk in phosphate-buffered saline supplemented with 0.1% Tween-20 (PBST)) to reduce non-specific binding overnight. The membrane is incubated with a suitable primary antibody specific for human AR (for example, anti-human AR from BD-PharMingen) at 4 degrees Celsius overnight or at room temperature for 2 hours. […] The membrane is rinsed with PBST, and a suitable visualization procedure is used to detect the secondary antibody (for example, horseradish peroxidase can be detected with a colorimetric substrate or by a chemiluminescent substrate such as that provided by the enhanced chemiluminescence (ECL Plus) kit from Amersham). […] Quantification of the protein signals can be carried out by densitometry, using appropriate software (ImageJ software from the National Institutes of Health).
LNCaP cells from the above described experiment were harvested at designated times, cell lysate was prepared for Western blot analysis as described previously. A color detection method was subsequently employed to examine AR and actin protein signals in the membranes, and the resultant protein signals were quantitated by densitometry. In FIG. 4B, normalized AR signals (as relative to actin protein) are reported, which were expressed as a percentage of baseline (Day 0) value. […]
Cells were then harvested and AR protein was quantified by Western blot.

androgen receptor (AR) [2] = molecular target: T1, androgen receptor (AR); test: AR degradation in LNCaP cells in the presence of cycloheximide (Western blot); assay type: cell-based; settings: 20 micromolar, cycloheximide 15 micrograms/milliter
Protocol: To determine whether the observed reduction of AR protein levels was due to protein degradation rather than inhibition of AR protein synthesis, a second set of three replicate experiments was performed. In these experiments, the protein synthesis inhibitor cycloheximide (CHX) was used to prevent the cells from synthesizing new proteins. In the absence of new AR protein synthesis, any alterations in AR levels would be mainly attributable to protein degradation. LNCaP cells were cultured in the presence and absence of ASC-J9 (20 micromolar) and in the presence and absence of cycloheximide (15 micrograms/milliter). Cells were then incubated for 0, 3, 6 and 12 hours before harvesting and analysis of AR levels by Western blot.

[3] = molecular target: T2, mutant androgen receptor poly Q49 (GFPARQ49) (Homo sapiens, UniProt P10275, INS80QQQQQQQQQQQQQQQQQQQQQQQQQQ); test: Fluorescence microscopy of COS-1 cells transfected with GFPARQ49; assay type: cell-based; settings: COS-1, 5 micromolar
T2 construct: GFP (green fluorescent protein); expressed in transfected cells; host or cells: COS-1 (monkey kidney)
Protocol: Monkey kidney COS-1 cells were plated at a density of 3×10^4 cells per 0.5-milliliter volume onto alcohol-cleaned and sterilized cover slips placed in 35-millimeter suspension culture dishes containing Dulbecco's modified Eagle's (DME) medium containing 10% FBS. The cells were transfected with plasmids containing the wild type AR (GFPAR) or poly Q49 (plasmid GFPARQ49) mutant androgen receptor and green fluorescent protein (GFP) as a reporter. For each coverslip, 12.3 microliters SuperFect was added to 3.075 micrograms plasmid in 102.5 microliters DME medium (to give a 1:4 ratio of DNA to SuperFect reagent); the mixture was vortexed briefly, and the complex allowed to form over 15 minutes. Each mixture then received 897 microliters CD/DME and was mixed gently. The resulting 1-milliliter volumes were added to the dishes containing the coverslips (final plasmid concentration was […] per dish). Cells were allowed to incubate with the transfection solution for 5 hours, then the medium was changed to fresh 1.5 milliliters CD/DME medium with either vehicle (DMSO) only added or ASC-J9 (final concentration 5 micromolar). […] The coverslips were air-dried, mounted on slides with a glycerol-based mounting agent, and stored at 4 degrees Celsius if necessary prior to observation with fluorescence microscopy. […]

sebaceous glands = test: Reduction of sebaceous glands in Fuzzy rats, topical cream; assay type: in vivo
Protocol: Topical creams were prepared as later described in EXAMPLE 12. […] The test or control creams were applied using a cotton swab to the dorsal skin of the animal, once daily, over a period of 8 weeks. Animals were then sacrificed and skin samples collected for microscopic examination. Commercial hair remover was applied to the dorsal surface of the euthanized animals. After 5 minutes, the hair remover and hairs were removed with a tissue. The area was thoroughly cleaned with 75% isopropyl alcohol. A 4-millimeter skin punch was used to remove skin tissue samples, which were incubated for 2 to 3 hours in a ethylenediaminetetraacetate (EDTA, 17 millimolar), sodium phosphate (0.1 molar, pH 7.4) solution at 37 degrees Celsius. The epidermis was carefully separated from the dermis and stored in 10% phosphate-buffered formalin. Prior to microscopic examination, the samples were mounted on glass slides. Areas of well-preserved glandular lobules were selected for microscopic imaging. Edges of the glandular lobes were traced and the areas of the traced lobes obtained with Image J software (National Institutes of Health).

T2 sequence (P10275 with tags, fused parts or gaps with the stated changes): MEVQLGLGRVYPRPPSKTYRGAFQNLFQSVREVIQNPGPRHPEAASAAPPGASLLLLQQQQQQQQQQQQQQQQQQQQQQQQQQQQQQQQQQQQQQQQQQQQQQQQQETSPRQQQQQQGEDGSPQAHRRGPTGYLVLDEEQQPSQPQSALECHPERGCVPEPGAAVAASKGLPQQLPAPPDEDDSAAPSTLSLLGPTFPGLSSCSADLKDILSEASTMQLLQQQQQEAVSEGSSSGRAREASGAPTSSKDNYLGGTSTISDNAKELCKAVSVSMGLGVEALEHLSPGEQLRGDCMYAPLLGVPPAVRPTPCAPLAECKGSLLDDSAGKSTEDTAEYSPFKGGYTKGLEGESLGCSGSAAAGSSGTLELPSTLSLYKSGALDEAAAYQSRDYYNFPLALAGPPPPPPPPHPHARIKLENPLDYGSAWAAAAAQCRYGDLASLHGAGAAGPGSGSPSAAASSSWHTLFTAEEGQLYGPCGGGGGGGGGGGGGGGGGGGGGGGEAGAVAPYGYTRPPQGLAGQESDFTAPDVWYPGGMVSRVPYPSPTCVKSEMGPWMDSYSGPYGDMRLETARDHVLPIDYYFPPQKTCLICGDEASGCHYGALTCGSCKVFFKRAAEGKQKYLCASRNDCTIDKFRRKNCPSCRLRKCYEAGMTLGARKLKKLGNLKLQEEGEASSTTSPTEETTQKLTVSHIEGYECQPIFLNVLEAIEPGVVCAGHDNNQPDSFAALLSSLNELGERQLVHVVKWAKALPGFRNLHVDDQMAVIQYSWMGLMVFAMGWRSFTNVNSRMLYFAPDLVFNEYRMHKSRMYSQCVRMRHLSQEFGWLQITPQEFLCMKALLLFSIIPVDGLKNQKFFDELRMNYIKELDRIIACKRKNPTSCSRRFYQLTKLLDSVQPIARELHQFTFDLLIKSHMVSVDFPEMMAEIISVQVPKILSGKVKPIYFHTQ

Question: With `COc1ccc(C=CC(=O)C=C(O)C=Cc2ccc(OC)c(OC)c2)cc1OC` [ASC-J9, 5-hydroxy-1,7-bis(3,4-dimethoxyphenyl)-1,4,6-heptatrien-3-one] as the compound, how does the “time at which AR reduction was first observed” value (androgen receptor (AR) [1]; 5 μM, continuous incubation) read?
Answer: 2 days

Question: And the “AR remaining, normalized AR signal as percentage of baseline (Day 0)” value (androgen receptor (AR) [1]; 5 μM, end of 5-day incubation)?
Answer: ~10%

Question: What about the “AR protein, ARD enhancer compared with conventional anti-androgens” value (androgen receptor (AR) [1]; 48 hours, Western blot (FIG. 7B)) of the same compound?
Answer: decreased AR protein

Question: And the “time within which degradation of existing AR protein was enhanced” value (androgen receptor (AR) [2])?
Answer: ≤ 4 h

Question: What about the “fluorescent inclusions or aggregates of mutant poly Q49 AR” value [3] of the same compound?
Answer: substantially smaller amounts of fluorescent inclusions

Question: And the “size of ducts of sebaceous glands” value (sebaceous glands; male Fuzzy rats, topical (FIG. 10E), comparable to castration, better than flutamide)?
Answer: significantly reduced the size of ducts

Question: What about the “size of the sebaceous gland” value (sebaceous glands; male rats, topical, 200 μM (FIG. 10A-C), not to the extent caused by castration) of the same compound?
Answer: significant reduction in the size of the sebaceous gland

Question: What about the “time to reduction of brown skin color and bands of sebaceous glands” value (sebaceous glands; topical cream 25 micromolar, once daily) of the same compound?
Answer: 4-5 weeks

Question: What about the “size of the sebaceous glandular lobe” value (sebaceous glands; topical, various concentrations (FIG. 10D), less than castration, better than flutamide) of the same compound?
Answer: significant reduction in the size of the sebaceous glandular lobe
